Reference: publication PMC6874179, “Development of Macrocycle Kinase Inhibitors for ALK2 Using Fibrodysplasia Ossificans Progressiva‐Derived Endothelial Cells” (JBMR Plus, 2019)
≈ marks a conversion by molar mass, not a printed value. Like-named read-outs stand apart in the source and are kept apart here.

Assays:
TBR2 = target: T1, TBR2 (Homo sapiens, UniProt P37173); assay: DiscoverX Kd determination; assay type: binding
T1 construct: T7 phage fusion (or DNA tag for qPCR if made in HEK-293); purchased DiscoverX; host or cells: E. coli (T7 phage) or HEK-293
T1 sequence (P37173 23-567): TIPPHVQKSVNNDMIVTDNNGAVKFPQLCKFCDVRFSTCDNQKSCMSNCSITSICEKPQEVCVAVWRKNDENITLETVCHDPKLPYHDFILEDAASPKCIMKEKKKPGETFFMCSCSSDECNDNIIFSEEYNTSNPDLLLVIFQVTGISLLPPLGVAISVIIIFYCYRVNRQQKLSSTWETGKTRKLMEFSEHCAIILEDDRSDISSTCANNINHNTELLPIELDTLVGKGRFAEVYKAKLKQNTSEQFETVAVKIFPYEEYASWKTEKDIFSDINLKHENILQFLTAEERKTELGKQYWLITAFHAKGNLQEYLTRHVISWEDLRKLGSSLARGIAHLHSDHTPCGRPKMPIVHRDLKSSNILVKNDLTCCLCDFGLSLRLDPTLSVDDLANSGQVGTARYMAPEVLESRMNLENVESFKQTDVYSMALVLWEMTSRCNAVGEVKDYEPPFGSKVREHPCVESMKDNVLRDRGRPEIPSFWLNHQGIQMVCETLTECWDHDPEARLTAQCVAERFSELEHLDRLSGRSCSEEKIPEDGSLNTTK
Procedure: DiscoverX Kd determination: For most assays, kinase-tagged T7 phage strains were prepared in an E. coli host derived from the BL21 strain. E. coli were grown to log-phase and infected with T7 phage and incubated with shaking at 32°C until lysis. The lysates were centrifuged and filtered to remove cell debris. The remaining kinases were produced in HEK-293 cells and subsequently tagged with DNA for qPCR detection. […] The liganded beads were blocked with excess biotin and washed with blocking buffer (SeaBlock (Pierce), 1% BSA, 0.05% Tween 20, 1 mM DTT) to remove unbound ligand and to reduce non-specific binding. […] Kds were determined using an 11-point 3-fold compound dilution series with three DMSO control points. […] The compounds were then diluted directly into the assays such that the final concentration of DMSO was 0.9%. All reactions performed in polypropylene 384-well plate. Each was a final volume of 0.02 ml. […] The kinase concentration in the eluates was measured by qPCR. An 11-point 3-fold serial dilution of each test compound was prepared in 100% DMSO at 100x final test concentration and subsequently diluted to 1x in the assay (final DMSO concentration = 1%). Most Kds were determined using a compound top concentration = 30.000 nM. […] Binding constants (Kds) were calculated with a standard dose-response curve using the Hill equation: Response = Background + Signal – Background 1 + (KdHill Slope / DoseHill Slope). The Hill Slope was set to -1. Curves were fitted using a non-linear least square fit with the Levenberg-Marquardt algorithm.

[1] = Microsomal incubations, hLM; assay type: in vitro ADME; conditions: human, pooled liver microsomes, pH 7.4; microsomes 0.5 mg/ml, 0.5 μM compound; read-out: Metabolic clearance hLM
Procedure: Pooled human liver microsomes were purchased from Xenotech LLC (Kansas City, KS). Microsomes (0.5 mg/ml) were preincubated with 0.5 μM test compound for 7 min at 37°C in 50 mM phosphate buffer, pH 7.4. The reactions were initiated by adding prewarmed cofactor (0.44 mM NADPH). Aliquots of samples were taken at 0, 5, 10, 20 and 45 min and the reactions terminated by addition of cold acetonitrile containing an internal standard. Samples were centrifuged at 3000g for 10 min at 4°C and then supernatants were analyzed by LC/MS/MS for the amount of parent compound remaining.

p-Smad1/5 in 2H11 ECs = assay: Western blot of p-Smad1/5 in 2H11 endothelial cells; assay type: cell-based, mouse; conditions: 2H11 cells, compound 0.5μM; for Inhibition of BMP-6-induced p-Smad1/5: BMP-6 50 ng/mL; for Inhibition of BMP-9-induced p-Smad1/5: BMP-9 1 ng/mL
Procedure: Compounds were added for 16 hours at 0.5μM before luciferase activity was measured.
Cells were seeded into 6-well plates and cultured till they reached confluence. Next, cells were stimulated as indicated and then washed with cold PBS. […] Electrophoresis was performed in 10% SDS/polyacrylamide gels. Separated proteins were transferred to nitrocellulose membranes (0.5 A at 100 V; in ice) for 1 hour. Blots were blocked in Tris-Buffered Saline solution containing 0.1% Tween 20 and 5% non-fat dry milk overnight at 4 °C, and immune-detection of specific proteins was carried out with primary antibodies (see above) followed by horseradish peroxidase-conjugated anti-mouse or anti-rabbit (GE Healthcare, Eindhoven, The Netherlands) secondary antibodies using an ECL system (Fisher Scientific, Landsmeer, The Netherlands).

Solubility determination = assay type: physicochemical; conditions: kinetic from dmso stock, 2-hour equilibrium, room temperature
Procedure: Test compound from 5 mM DMSO stock solution were diluted to 250 µM either in 50 mM PBS pH 7.4 or FaSSIF pH 6.5 in triplicate. DMSO final concentration was 5%. After a 2-hour equilibrium at room temperature and under shaking, samples were centrifuged at 3000g for 10 min at room temperature. A calibration curve was prepared in LC mobile phase from the 5 mM DMSO stock solution. Samples and calibration curve were analyzed by LC with UV detection.

PDGFRA_V561D = target: T2, PDGFRA_V561D (Homo sapiens, UniProt P16234, V561D); assay: Proqinase Kinase profiling; assay type: biochemical; conditions: read-out: % inhibition at 100nM
T2 construct: purchased DiscoverX

ITK = target: T3, ITK (Homo sapiens, UniProt Q08881); assay: Proqinase Kinase profiling; assay type: biochemical; conditions: read-out: % inhibition at 100nM
T3 construct: purchased DiscoverX
T3 sequence (Q08881 whole entry): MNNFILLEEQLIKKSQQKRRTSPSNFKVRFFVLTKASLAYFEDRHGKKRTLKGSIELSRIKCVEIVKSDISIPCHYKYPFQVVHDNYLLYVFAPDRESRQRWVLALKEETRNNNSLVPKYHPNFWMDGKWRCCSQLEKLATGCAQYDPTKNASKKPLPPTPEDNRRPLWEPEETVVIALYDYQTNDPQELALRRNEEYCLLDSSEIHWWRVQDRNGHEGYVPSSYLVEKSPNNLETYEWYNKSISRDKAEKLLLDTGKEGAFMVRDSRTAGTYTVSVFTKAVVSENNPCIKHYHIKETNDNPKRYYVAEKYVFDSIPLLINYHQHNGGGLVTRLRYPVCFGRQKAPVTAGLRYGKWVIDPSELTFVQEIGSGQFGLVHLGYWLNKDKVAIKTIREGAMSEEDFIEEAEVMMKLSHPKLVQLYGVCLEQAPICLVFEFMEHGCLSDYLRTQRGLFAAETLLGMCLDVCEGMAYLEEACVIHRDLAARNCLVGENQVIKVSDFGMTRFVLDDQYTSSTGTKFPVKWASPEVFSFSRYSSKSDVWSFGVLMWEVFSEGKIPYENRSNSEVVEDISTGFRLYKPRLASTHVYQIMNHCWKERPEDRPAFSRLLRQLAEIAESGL

SRMS = target: T4, SRMS (Homo sapiens, UniProt Q9H3Y6); assay: Proqinase Kinase profiling; assay type: biochemical; conditions: read-out: % inhibition at 100nM
T4 construct: purchased DiscoverX

EPHA4 = target: T5, EPHA4 (Homo sapiens, UniProt P54764); assay: Proqinase Kinase profiling; assay type: biochemical; conditions: read-out: % inhibition at 100nM
T5 construct: purchased DiscoverX

PLK2 = target: T6, PLK2 (Homo sapiens, UniProt Q9NYY3); assay: Proqinase Kinase profiling; assay type: biochemical; conditions: read-out: % inhibition at 100nM
T6 construct: purchased DiscoverX
T6 sequence (Q9NYY3 whole entry): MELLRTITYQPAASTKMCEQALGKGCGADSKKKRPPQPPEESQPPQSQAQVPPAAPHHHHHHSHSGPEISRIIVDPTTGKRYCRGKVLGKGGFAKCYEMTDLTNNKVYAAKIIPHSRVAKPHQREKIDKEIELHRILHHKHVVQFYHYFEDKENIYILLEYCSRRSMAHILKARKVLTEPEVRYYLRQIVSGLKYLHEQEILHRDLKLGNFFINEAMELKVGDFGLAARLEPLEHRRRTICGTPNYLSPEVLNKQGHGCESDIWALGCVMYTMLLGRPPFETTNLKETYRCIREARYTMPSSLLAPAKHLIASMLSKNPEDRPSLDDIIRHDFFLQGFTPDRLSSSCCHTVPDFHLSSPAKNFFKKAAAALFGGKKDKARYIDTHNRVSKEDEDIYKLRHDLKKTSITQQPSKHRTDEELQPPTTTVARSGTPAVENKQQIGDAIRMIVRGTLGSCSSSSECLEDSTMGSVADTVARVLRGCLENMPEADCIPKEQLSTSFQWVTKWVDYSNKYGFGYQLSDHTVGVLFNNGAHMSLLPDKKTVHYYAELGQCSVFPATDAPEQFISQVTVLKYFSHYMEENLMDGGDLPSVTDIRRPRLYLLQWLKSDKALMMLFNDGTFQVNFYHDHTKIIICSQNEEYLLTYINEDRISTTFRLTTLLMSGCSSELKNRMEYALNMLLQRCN

KIT = target: T7, KIT (Homo sapiens, UniProt P10721); assay: Proqinase Kinase profiling; assay type: biochemical; conditions: read-out: % inhibition at 100nM
T7 construct: purchased DiscoverX
T7 sequence (P10721 26-976): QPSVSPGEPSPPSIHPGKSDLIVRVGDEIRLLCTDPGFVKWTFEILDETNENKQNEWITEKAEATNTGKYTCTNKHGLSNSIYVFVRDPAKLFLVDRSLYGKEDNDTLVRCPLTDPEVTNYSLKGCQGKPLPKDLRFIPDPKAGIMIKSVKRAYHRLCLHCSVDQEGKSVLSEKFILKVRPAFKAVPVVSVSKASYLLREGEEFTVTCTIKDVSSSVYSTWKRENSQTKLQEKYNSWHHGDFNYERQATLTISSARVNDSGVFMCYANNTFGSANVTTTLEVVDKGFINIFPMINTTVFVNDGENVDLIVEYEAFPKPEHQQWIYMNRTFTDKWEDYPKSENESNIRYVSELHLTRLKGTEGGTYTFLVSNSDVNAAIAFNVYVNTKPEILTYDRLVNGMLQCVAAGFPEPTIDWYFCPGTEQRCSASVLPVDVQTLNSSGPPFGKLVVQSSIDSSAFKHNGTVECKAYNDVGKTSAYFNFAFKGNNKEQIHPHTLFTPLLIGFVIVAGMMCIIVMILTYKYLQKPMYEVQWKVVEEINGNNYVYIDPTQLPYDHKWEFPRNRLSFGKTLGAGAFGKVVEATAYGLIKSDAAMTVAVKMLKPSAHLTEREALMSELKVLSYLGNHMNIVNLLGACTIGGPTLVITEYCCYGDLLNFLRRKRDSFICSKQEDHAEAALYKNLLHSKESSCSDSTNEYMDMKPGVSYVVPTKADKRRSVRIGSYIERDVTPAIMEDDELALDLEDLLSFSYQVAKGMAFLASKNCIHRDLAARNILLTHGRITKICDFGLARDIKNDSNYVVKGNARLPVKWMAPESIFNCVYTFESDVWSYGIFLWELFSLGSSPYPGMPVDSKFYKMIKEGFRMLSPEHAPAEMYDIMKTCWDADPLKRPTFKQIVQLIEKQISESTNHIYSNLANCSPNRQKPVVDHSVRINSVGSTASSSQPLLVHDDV

ADRBK1 = target: T8, ADRBK1 (Homo sapiens, UniProt P25098); assay: Proqinase Kinase profiling; assay type: biochemical; conditions: read-out: % inhibition at 100nM
T8 construct: purchased DiscoverX

GRK4 = target: T9, GRK4 (Homo sapiens, UniProt P32298); assay: Proqinase Kinase profiling; assay type: biochemical; conditions: read-out: % inhibition at 100nM
T9 construct: purchased DiscoverX

MAP3K10 = target: T10, MAP3K10 (Homo sapiens, UniProt Q02779); assay: Proqinase Kinase profiling; assay type: biochemical; conditions: read-out: % inhibition at 100nM
T10 construct: purchased DiscoverX
T10 sequence (Q02779 whole entry): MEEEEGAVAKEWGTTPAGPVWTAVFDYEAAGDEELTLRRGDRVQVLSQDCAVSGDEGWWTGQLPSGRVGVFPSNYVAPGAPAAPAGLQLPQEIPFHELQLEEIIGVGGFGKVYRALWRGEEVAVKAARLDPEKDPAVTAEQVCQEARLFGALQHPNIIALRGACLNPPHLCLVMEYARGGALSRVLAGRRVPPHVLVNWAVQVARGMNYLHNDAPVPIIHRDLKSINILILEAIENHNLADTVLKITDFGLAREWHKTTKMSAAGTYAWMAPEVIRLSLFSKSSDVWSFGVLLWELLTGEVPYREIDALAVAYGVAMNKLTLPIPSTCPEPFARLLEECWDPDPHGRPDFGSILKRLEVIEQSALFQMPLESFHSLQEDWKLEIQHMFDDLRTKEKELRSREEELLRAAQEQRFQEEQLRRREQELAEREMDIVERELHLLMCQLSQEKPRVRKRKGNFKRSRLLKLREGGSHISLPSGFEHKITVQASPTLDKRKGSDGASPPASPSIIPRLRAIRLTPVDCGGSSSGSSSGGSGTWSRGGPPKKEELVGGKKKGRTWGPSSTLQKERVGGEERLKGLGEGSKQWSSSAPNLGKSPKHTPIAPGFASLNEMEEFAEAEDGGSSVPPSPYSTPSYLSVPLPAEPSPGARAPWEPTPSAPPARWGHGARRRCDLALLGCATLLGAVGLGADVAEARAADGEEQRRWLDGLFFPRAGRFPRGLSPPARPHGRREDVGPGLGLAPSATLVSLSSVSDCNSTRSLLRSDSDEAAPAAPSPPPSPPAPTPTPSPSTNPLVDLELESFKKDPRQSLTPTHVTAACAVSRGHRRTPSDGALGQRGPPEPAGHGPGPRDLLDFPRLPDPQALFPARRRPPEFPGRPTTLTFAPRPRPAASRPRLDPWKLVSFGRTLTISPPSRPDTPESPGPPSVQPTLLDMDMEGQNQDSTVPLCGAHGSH

PASK = target: T11, PASK (Homo sapiens, UniProt Q96RG2); assay: Proqinase Kinase profiling; assay type: biochemical; conditions: read-out: % inhibition at 100nM
T11 construct: purchased DiscoverX

KIT_V559D_V654A = target: T12, KIT_V559D_V654A (Homo sapiens, UniProt P10721, V559D/V654A); assay: Proqinase Kinase profiling; assay type: biochemical; conditions: read-out: % inhibition at 100nM
T12 construct: purchased DiscoverX
T12 sequence (P10721 26-976 V559D/V654A): as the sequence (P10721 26-976) above, with V534D, V629A counted along it

CLK1 = target: T13, CLK1 (Homo sapiens, UniProt P49759); assay: Proqinase Kinase profiling; assay type: biochemical; conditions: read-out: % inhibition at 100nM
T13 construct: purchased DiscoverX
T13 sequence (P49759 whole entry): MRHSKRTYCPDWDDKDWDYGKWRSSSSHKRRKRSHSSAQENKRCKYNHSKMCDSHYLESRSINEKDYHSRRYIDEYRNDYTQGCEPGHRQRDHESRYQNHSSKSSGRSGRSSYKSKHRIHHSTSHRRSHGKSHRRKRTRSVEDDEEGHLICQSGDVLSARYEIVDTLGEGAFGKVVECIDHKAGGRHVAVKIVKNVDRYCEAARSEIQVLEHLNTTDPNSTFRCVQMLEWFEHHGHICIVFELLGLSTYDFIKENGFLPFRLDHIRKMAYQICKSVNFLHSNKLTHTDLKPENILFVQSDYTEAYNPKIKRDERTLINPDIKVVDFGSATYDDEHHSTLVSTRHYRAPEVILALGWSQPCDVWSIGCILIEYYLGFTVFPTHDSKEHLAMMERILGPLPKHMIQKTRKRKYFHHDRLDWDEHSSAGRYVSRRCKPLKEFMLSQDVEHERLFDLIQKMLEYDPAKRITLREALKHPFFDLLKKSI

EEF2K = target: T14, EEF2K (Homo sapiens, UniProt O00418); assay: Proqinase Kinase profiling; assay type: biochemical; conditions: read-out: % inhibition at 100nM
T14 construct: purchased DiscoverX

MAPK15 = target: T15, MAPK15 (Homo sapiens, UniProt Q8TD08); assay: Proqinase Kinase profiling; assay type: biochemical; conditions: read-out: % inhibition at 100nM
T15 construct: purchased DiscoverX

PRKX = target: T16, PRKX (Homo sapiens, UniProt P51817); assay: Proqinase Kinase profiling; assay type: biochemical; conditions: read-out: % inhibition at 100nM
T16 construct: purchased DiscoverX

GRK6 = target: T17, GRK6 (Homo sapiens, UniProt P43250); assay: Proqinase Kinase profiling; assay type: biochemical; conditions: read-out: % inhibition at 100nM
T17 construct: purchased DiscoverX

YES1 = target: T18, YES1 (Homo sapiens, UniProt P07947); assay: Proqinase Kinase profiling; assay type: biochemical; conditions: read-out: % inhibition at 100nM
T18 construct: purchased DiscoverX
T18 sequence (P07947 whole entry): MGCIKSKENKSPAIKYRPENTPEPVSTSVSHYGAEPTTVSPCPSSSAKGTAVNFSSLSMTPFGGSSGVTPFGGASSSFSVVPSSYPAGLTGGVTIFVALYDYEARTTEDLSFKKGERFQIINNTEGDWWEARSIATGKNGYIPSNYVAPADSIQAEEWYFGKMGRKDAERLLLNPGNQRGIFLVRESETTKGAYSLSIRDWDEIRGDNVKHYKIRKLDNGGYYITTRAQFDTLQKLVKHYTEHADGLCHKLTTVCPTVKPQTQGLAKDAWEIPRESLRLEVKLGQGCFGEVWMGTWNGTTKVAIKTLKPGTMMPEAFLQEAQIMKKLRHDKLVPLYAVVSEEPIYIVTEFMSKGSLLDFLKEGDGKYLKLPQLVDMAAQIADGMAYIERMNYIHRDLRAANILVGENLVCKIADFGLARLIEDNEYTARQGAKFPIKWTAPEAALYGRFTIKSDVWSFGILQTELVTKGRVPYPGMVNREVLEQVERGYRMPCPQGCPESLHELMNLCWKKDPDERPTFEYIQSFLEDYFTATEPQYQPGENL

[2] = PBS buffer, aqueous buffer, 50 mM PBS pH 7.4, 5% DMSO, read-out: Solubility in µM PBS
[3] = FaSSIF pH 6.5, 5% DMSO, read-out: Solubility in µM FaSSIF

Row | Structure (SMILES) | microsomal CLint at 0.5 μM [1] | Inhibition of BMP-6-induced p-Smad1/5 (p-Smad1/5 in 2H11 ECs) | Inhibition of BMP-9-induced p-Smad1/5 (p-Smad1/5 in 2H11 ECs) | solubility at 2 h (Solubility determination; [2]) | solubility at 2 h (Solubility determination; [3]) | inhibition at 0.1 µM (PDGFRA_V561D) | inhibition at 0.1 µM (ITK) | Kd (TBR2; read-out: Kd in nM TBR2) | inhibition at 0.1 µM (SRMS) | inhibition at 0.1 µM (EPHA4) | inhibition at 0.1 µM (PLK2) | inhibition at 0.1 µM (KIT) | inhibition at 0.1 µM (ADRBK1) | inhibition at 0.1 µM (GRK4) | inhibition at 0.1 µM (MAP3K10) | inhibition at 0.1 µM (PASK) | inhibition at 0.1 µM (KIT_V559D_V654A) | inhibition at 0.1 µM (CLK1) | inhibition at 0.1 µM (EEF2K) | inhibition at 0.1 µM (MAPK15) | other results
1 | c1ccc2c(-c3cnn4cc(-c5ccc(N6CCNCC6)cc5)cnc34)ccnc2c1 [LDN-193189, reference compound] | 61 µL/min/mg | efficiently blocked | efficiently blocked | 5 µM (≈ 2.03 µg/mL) | 49 µM (≈ 19.9 µg/mL) |  |  |  |  |  |  |  |  |  |  |  |  |  |  |  | Kd (TBR2): 26 nM
2 | Clc1cc2cc(c1)-c1cnn3ccc(nc13)NCCOCCO2 [OD36] | 59 µL/min/mg | only inhibited BMP‐9‐induced p‐Smad1/5 | only inhibited BMP‐9‐induced p‐Smad1/5 | 2 µM (≈ 0.662 µg/mL) | 212 µM (≈ 70.1 µg/mL) | -1% | -6% | 680 nM | 11% | -2% | 17% | 33% | 4% | 16% | 13% | 3% | -2% | 7% | -9% | 17% | inhibition at 0.1 µM (PRKX): 17%; inhibition at 0.1 µM (GRK6): 10%; inhibition at 0.1 µM (YES1): 28%
3 | Cc1cc2cc(c1)-c1cnn3ccc(nc13)NCCNC(=O)CCN(C)C2 [OD52] | 72 µL/min/mg | only inhibited BMP‐9‐induced p‐Smad1/5 | only inhibited BMP‐9‐induced p‐Smad1/5 | 140 µM (≈ 51 µg/mL) | 240 µM (≈ 87.5 µg/mL) | 12% | 3% | 2500 nM | -9% | -7% | -4% | -4% | 10% | 16% | -3% | 3% | -12% | 6% | -13% | -3% | inhibition at 0.1 µM (PRKX): 34%; inhibition at 0.1 µM (GRK6): -5%; inhibition at 0.1 µM (YES1): -22%
